Each compound was assayed against T1, IRAK4 (Homo sapiens, UniProt Q9NWZ3) (assay: IRAK4 Inhibition Assay). Conditions: ATP 500 μM; FL-IPTSPITTTYFFFKKK peptide […]; IRAK4 0.6 nM; 60 min room temperature; Caliper LABCHIP 3000.
T1 sequence (Q9NWZ3 1-460): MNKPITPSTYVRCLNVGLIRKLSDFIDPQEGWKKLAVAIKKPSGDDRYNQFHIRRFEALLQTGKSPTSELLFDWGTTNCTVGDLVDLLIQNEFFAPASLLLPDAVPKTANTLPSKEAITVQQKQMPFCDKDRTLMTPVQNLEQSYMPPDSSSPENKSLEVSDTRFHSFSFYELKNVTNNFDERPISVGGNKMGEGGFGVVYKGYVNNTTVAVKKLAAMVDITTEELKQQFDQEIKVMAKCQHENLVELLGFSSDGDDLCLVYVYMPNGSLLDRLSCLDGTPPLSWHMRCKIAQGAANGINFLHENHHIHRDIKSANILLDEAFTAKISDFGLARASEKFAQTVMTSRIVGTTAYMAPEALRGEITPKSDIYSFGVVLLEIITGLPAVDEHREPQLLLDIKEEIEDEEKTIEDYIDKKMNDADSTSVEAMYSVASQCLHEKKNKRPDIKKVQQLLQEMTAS
Assay type: biochemical
Method: The assays were performed in U-bottom 384-well plates. […] The reaction was initiated by the combination of IRAK4 with substrates and test compounds. The reaction mixture was incubated at room temperature for 60 min. and terminated by adding 45 μL of 35 mM EDTA to each sample. The reaction mixture was analyzed on the Caliper LABCHIP® 3000 (Caliper, Hopkinton, MA) by electrophoretic separation of the fluorescent substrate and phosphorylated product. […] The final concentrations of reagents in the assays are ATP, 500 μM; FL-[…] peptide 1.5 μM; IRAK4, 0.6 nM; and DMSO, 1.6%.

Compound | IC50 [nM]
CC[C@@H]1CC(=O)N[C@@H]1COc1nccc2cc(C(N)=O)c3nccn3c12 [Example 16, 1-(((2S,3R)-3-ethyl-5-oxopyrrolidin-2-yl)methoxy)imidazo[1,2-a][1,7]naphthyridine-6-carboxamide] | 11
CC[C@@H]1CC(=O)N[C@@H]1COc1cccc2cc(C(N)=O)c3ncnn3c12 [Example 37, 9-(((2S,3R)-3-ethyl-5-oxopyrrolidin-2-yl)methoxy)-[1,2,4]triazolo[1,5-a]quinoline-4-carboxamide] | 3.4
1-(((2S,3S,4S)-3-ethyl-4-fluoro-5-oxotetrahydrofuran-2-yl)methoxy)-8-methyl-8,9-dihydrofuro[2,3-h]isoquinoline-6-carboxamide [Example 51] | 3.1
NC(=O)c1cc2ccnc(OC[C@@H]3CNC(=O)N3)c2n2ccnc12 [Example 27, (S)-1-((2-oxoimidazolidin-4-yl)methoxy)imidazo[1,2-a][1,7]naphthyridine-6-carboxamide] | 1820
CC[C@@H]1[C@H](F)C(=O)N[C@@H]1COc1cccc2cc(C(N)=O)c3ncnn3c12 [Example 38, 9-(((2S,3S,4S)-3-ethyl-4-fluoro-5-oxopyrrolidin-2-yl)methoxy)-[1,2,4]triazolo[1,5-a]quinoline-4-carboxamide] | 60.3
CC[C@@H]1OC(=O)N[C@H]1COc1nccc2cc(C(N)=O)c3nccn3c12 [Example 24, 1-(((4S,5S)-5-ethyl-2-oxooxazolidin-4-yl)methoxy)imidazo[1,2-a][1,7]naphthyridine-6-carboxamide] | 176
CC[C@H]1[C@@H](COc2cccc3cc(C(N)=O)c4nccn4c23)NC(=O)[C@@]1(C)F [Example 6, 9-(((2S,3 S,4S)-3-ethyl-4-fluoro-4-methyl-5-oxopyrrolidin-2-yl)methoxy)imidazo[1,2-a]quinoline-4-carboxamide] | 518
CC[C@H]1CC(=O)N[C@@H]1COc1nccc2cc(C(N)=O)c3nc(C(F)(F)F)cn3c12 [Example 31, 1-(((2S,3S)-3-ethyl-5-oxopyrrolidin-2-yl)methoxy)-8-(trifluoromethyl)imidazo[1,2-a][1,7]naphthyridine-6-carboxamide] | 1060
CC[C@@H]1[C@H](F)C(=O)N[C@@H]1COc1cccc2cc(C(N)=O)c3nc(C)nn3c12 [Example 40, 9-(((2S,3S,4S)-3-ethyl-4-fluoro-5-oxopyrrolidin-2-yl)methoxy)-2-methyl-[1,2,4]triazolo[1,5-a]quinoline-4-carboxamide] | 39.1
NC(=O)c1cc2cccc(OC[C@H]3COCC(=O)N3)c2n2ccnc12 [Example 7, (R)-9-((5-oxomorpholin-3-yl)methoxy)imidazo[1,2-a]quinoline-4-carboxamide] | 243
CC[C@@H]1CC(=O)N[C@@H]1COc1nc(C)cc2cc(C(N)=O)c3nccn3c12 [Example 28, 1-(((2S,3R)-3-ethyl-5-oxopyrrolidin-2-yl)methoxy)-3-methylimidazo[1,2-a][1,7]naphthyridine-6-carboxamide] | 225
CC[C@@H]1OCC(=O)N[C@@H]1COc1nccc2cc(C(N)=O)c3nccn3c12 [Example 26, 1-(((2S,3R)-2-ethyl-5-oxomorpholin-3-yl)methoxy)imidazo[1,2-a][1,7]naphthyridine-6-carboxamide] | 80.4
CC[C@@H]1[C@H](F)C(=O)N[C@@H]1COc1cccc2cc(C(N)=O)c3nc(C(C)(C)O)cn3c12 [Example 13, 9-(((2S,3S,4S)-3-ethyl-4-fluoro-5-oxopyrrolidin-2-yl)methoxy)-2-(2-hydroxypropan-2-yl)imidazo[1,2-a]quinoline-4-carboxamide] | 1430
CC[C@H]1OC(=O)N[C@H]1COc1nccc2cc(C(N)=O)c3nccn3c12 [Example 23, 1-(((4S,5R)-5-ethyl-2-oxooxazolidin-4-yl)methoxy)imidazo[1,2-a][1,7]naphthyridine-6-carboxamide] | 262
CC[C@@H]1[C@H](F)C(=O)N(CO)[C@@H]1COc1nccc2cc(C(N)=O)c3nccn3c12 [Example 32] | 62
CC[C@@H]1CC(=O)N[C@@H]1COc1nc(C)cc2cc(C(N)=O)c3nc(C)cn3c12 [Example 29, 1-(((2S,3R)-3-ethyl-5-oxopyrrolidin-2-yl)methoxy)-3,8-dimethylimidazo[1,2-a][1,7]naphthyridine-6-carboxamide] | 601
CC[C@H]1OCC(=O)N[C@H]1COc1nccc2cc(C(N)=O)c3nccn3c12 [Example 25, 1-(((2R,3S)-2-ethyl-5-oxomorpholin-3-yl)methoxy)imidazo[1,2-a][1,7]naphthyridine-6-carboxamide] | 1930
1-(((2S,3S,4S)-3-ethyl-4-fluoro-5-oxotetrahydrofuran-2-yl)methoxy)-8-methyl-8,9-dihydrofuro[2,3-h]isoquinoline-6-carboxamide [Example 52] | 1.3

Other lines, results leading:

IC50 [nM] | Compound
112 | CC[C@@H]1CC(=O)N[C@@H]1COC1=C(F)C=CC2C=C(C(N)=O)c3nccn3C12 (stereo partly drawn) [Example 59, 9-(((2S,3R)-3-ethyl-5-oxopyrrolidin-2-yl)methoxy)-8-fluoro-5a,9a-dihydroimidazo[1,2-a]quinoline-4-carboxamide]
15.3 | CC[C@@H]1CC(=O)N[C@@H]1COc1nccc2cc(C(N)=O)c3ncccc3c12 [Example 55, 1-(((2S,3R)-3-ethyl-5-oxopyrrolidin-2-yl)methoxy)-2,7-phenanthroline-6-carboxamide]
2.2 | CC[C@@H]1[C@H](F)C(=O)N[C@@H]1COc1nccc2cc(C(N)=O)c3c(c12)CC(C)(C)O3 [Example 63, 1-(((2S,3S,4S)-3-ethyl-4-fluoro-5-oxopyrrolidin-2-yl)methoxy)-8,8-dimethyl-8,9-dihydrofuro[2,3-h]isoquinoline-6-carboxamide]
350 | CC[C@@H]1CC(=O)N[C@@H]1COC1=CC=CC2C=C(C#N)c3nccn3C12 (stereo partly drawn) [Example 60, 9-(((2S,3R)-3-ethyl-5-oxopyrrolidin-2-yl)methoxy)-5a,9a-dihydroimidazo[1,2-a]quinoline-4-carbonitrile]
290 | CC[C@H]1CC(=O)N[C@@H]1COc1cccc2cc(C(N)=O)c3nncn3c12 [Example 42, 9-(((2S,3S)-3-ethyl-5-oxopyrrolidin-2-yl)methoxy)-[1,2,4]triazolo[4,3-a]quinoline-4-carboxamide]
16.2 | CC[C@@H]1[C@H](F)C(=O)N[C@@H]1COc1cccc2cc(C(N)=O)c3nncn3c12 [Example 43, 9-(((2S,3S,4S)-3-ethyl-4-fluoro-5-oxopyrrolidin-2-yl)methoxy)-[1,2,4]triazolo[4,3-a]quinoline-4-carboxamide]
70 | CC[C@@H]1[C@H](F)C(=O)N[C@@H]1COc1cccc2cc(C(N)=O)c3nnnn3c12 [Example 45, 9-(((2S,3S,4S)-3-ethyl-4-fluoro-5-oxopyrrolidin-2-yl)methoxy)tetrazolo[1,5-a]quinoline-4-carboxamide]
42.2 | CC[C@@H]1CC(=O)N[C@@H]1COc1cccc2cc(C(N)=O)c3nncn3c12 [Example 41, 9-(((2S,3R)-3-ethyl-5-oxopyrrolidin-2-yl)methoxy)-[1,2,4]triazolo[4,3-a]quinoline-4-carboxamide]
94.4 | CC[C@@H]1[C@H](F)C(=O)N[C@@H]1COC1=CC=CC2C(NC)=C(C(N)=O)c3nccn3C12 (stereo partly drawn) [Example 61, 9-(((2S,3S,4S)-3-ethyl-4-fluoro-5-oxopyrrolidin-2-yl)methoxy)-5-(methylamino)-5a,9a-dihydroimidazo[1,2-a]quinoline-4-carboxamide]
78.1 | CC[C@@H]1[C@H](F)C(=O)N[C@@H]1COc1nccc2cc(C(N)=O)c3ncnn3c12 [Example 47, 9-(((2S,3S,4S)-3-ethyl-4-fluoro-5-oxopyrrolidin-2-yl)methoxy)-[1,2,4]triazolo[1,5-a][1,7]naphthyridine-4-carboxamide]

Same assay, conditions: ATP 500 μM; FL-[…] peptide 1.5 μM; IRAK4 0.6 nM; 60 min room temperature; Caliper LABCHIP 3000

Compound | IC50 [nM]
CC[C@@H]1CC(=O)N[C@@H]1COc1nccc2cc(C(N)=O)c3nc(C(F)(F)F)cn3c12 [Example 30, 1-(((2S,3R)-3-ethyl-5-oxopyrrolidin-2-yl)methoxy)-8-(trifluoromethyl)imidazo[1,2-a][1,7]naphthyridine-6-carboxamide] | 1720

Each compound was assayed on Human whole blood, IL-6 levels after TLR2 agonist lipoteichoic acid (assay: IRAK4 Whole Blood Assay). Conditions: compounds 60 minutes at 37° C., lipoteichoic acid 10 μg/mL for 5 hours.
Assay type: cell-based
Method: IRAK4 Whole Blood Assay Human whole blood containing the anti-coagulant ACD-A was plated in 384-well plate (25 μL/well) and incubated with compounds for 60 minutes at 37° C. in a 5% CO2 incubator. The blood was stimulated with a TLR2 agonist, 10 μg/mL final concentration of lipoteichoic acid (Invivogen, San Diego, CA) in 25 μL RPMI (Gibco) for 5 hours in a 5% CO2 incubator. At the end of the incubation, plates were centrifuged at 2300 rpm for 5 minutes. Supernatants were harvested and analyzed for IL-6 levels by Flow Cytometry beads assay (BD Biosciences, San Jose, CA).

Compound | IC50 [nM]
CC[C@@H]1CC(=O)N[C@@H]1COc1nccc2cc(C(N)=O)c3nccn3c12 [Example 16, 1-(((2S,3R)-3-ethyl-5-oxopyrrolidin-2-yl)methoxy)imidazo[1,2-a][1,7]naphthyridine-6-carboxamide] | 1520
CC[C@@H]1CC(=O)N[C@@H]1COc1cccc2cc(C(N)=O)c3ncnn3c12 [Example 37, 9-(((2S,3R)-3-ethyl-5-oxopyrrolidin-2-yl)methoxy)-[1,2,4]triazolo[1,5-a]quinoline-4-carboxamide] | 586
1-(((2S,3S,4S)-3-ethyl-4-fluoro-5-oxotetrahydrofuran-2-yl)methoxy)-8-methyl-8,9-dihydrofuro[2,3-h]isoquinoline-6-carboxamide [Example 51] | 399
CC[C@@H]1CC(=O)N[C@@H]1COc1nccc2cc(C(N)=O)c3ncccc3c12 [Example 55, 1-(((2S,3R)-3-ethyl-5-oxopyrrolidin-2-yl)methoxy)-2,7-phenanthroline-6-carboxamide] | 879

From patent publication US12286428B2 (BRISTOL-MYERS SQUIBB COMPANY, priority 2019, dated 2025)
